{"source": "patent US9113629B2", "about": "“4-amino-6-(4-substituted-phenyl)-picolinates and 6-amino-2-(4-substituted-phenyl)-pyrimidine-4-carboxylates and their use as herbicides” (DOW AGROSCIENCES LLC, priority 2013, dated 2015)", "key": {"[1]": {"tested_on": "Key Broadleaf Weed and Crop Species", "assay": "Post-emergent Test II herbicidal activity (Table 5)", "assay_type": "in vivo", "details": "post-emergence, 336 h, post-emergent, 14 days after application; for pest or weed control at 70 g/ha: 70 g ai/ha; for pest or weed control at 140 g/ha: 140 g ai/ha", "how_it_was_run": "(§1)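 Injury was rated visually 14 d after treatment on a 0–100% scale against untreated controls. Test compounds, formulated with crop oil concentrate and surfactant and serially diluted down to 1/16× of the top rate, were applied by track sprayer at 187 L/ha onto first- to second-true-leaf seedlings.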"}, "[2]": {"tested_on": "Key Grass and Sedge Weeds as well as Grass Crops", "assay": "Post-emergent Test II herbicidal activity (Table 6)", "assay_type": "in vivo", "details": "post-emergence, 336 h; for pest or weed control at 70 g/ha: application rate 70 g ai/ha; for pest or weed control at 140 g/ha: application rate 140 g ai/ha", "how_it_was_run": "as §1"}, "[3]": {"details": "ABUTH: velvetleaf (Abutilon theophrasti), read-out: Visual Growth Reduction (%) 14 Days After Application ABUTH"}, "[4]": {"details": "AMARE: redroot pigweed (Amaranthus retroflexus), read-out: Visual Growth Reduction (%) 14 Days After Application AMARE"}, "[5]": {"details": "BRSNN: oilseed-rape, canola (Brassica napus), read-out: Visual Growth Reduction (%) 14 Days After Application BRSNN"}, "[6]": {"details": "CHEAL: lambsquarters (Chenopodium album), read-out: Visual Growth Reduction (%) 14 Days After Application CHEAL"}, "[7]": {"details": "EPHHL: wild poinsettia (Euphorbia heterophylla), read-out: Visual Growth Reduction (%) 14 Days After Application EPHHL"}, "[8]": {"details": "HELAN: sunflower (Helianthus annuus), read-out: Visual Growth Reduction (%) 14 Days After Application HELAN"}, "[9]": {"details": "VIOTR: wild pansy (Viola tricolor), read-out: Visual Growth Reduction (%) 14 Days After Application VIOTR"}, "[10]": {"details": "Triticum aestivum, TRZSS (wheat), read-out: Visual Growth Reduction (%) 14 Days After Application, TRZSS"}, "[11]": {"details": "CYPES: yellow nutsedge (Cyperus esculentus), read-out: Visual Growth Reduction (%) 14 Days After Application, CYPES"}, "[12]": {"details": "DIGSA: crabgrass (Digitaria sanguinalis), read-out: Visual Growth Reduction (%) 14 Days After Application, DIGSA"}, "[13]": {"details": "ECHCG: barnyardgrass (Echinochloa crus-galli), read-out: Visual Growth Reduction (%) 14 Days After Application, ECHCG"}, "[14]": {"details": "ORYSA: rice (Oryza sativa), read-out: Visual Growth Reduction (%) 14 Days After Application, ORYSA"}, "[15]": {"details": "SETFA: giant foxtail (Setaria faberi), read-out: Visual Growth Reduction (%) 14 Days After Application, SETFA"}, "[16]": {"details": "SORVU: grain sorghum (Sorghum vulgare), read-out: Visual Growth Reduction (%) 14 Days After Application, SORVU"}, "[17]": {"details": "ZEAMX: maize, corn (Zea mays), read-out: Visual Growth Reduction (%) 14 Days After Application, ZEAMX"}}, "note": "Like-named read-outs stand apart in the source and are kept apart here.", "data": [{"compound": "COC(=O)c1nc(-c2cc(F)c(F)cc2F)c(F)c(N)c1Cl", "note": "[Compound 200, Methyl 4-amino-3-chloro-5-fluoro-6-(2,4,5-trifluorophenyl)picolinate]", "values": [{"measurement": "pest or weed control at 70 g/ha", "setting": "[1]; [3]", "result": "95 to 100", "unit": "%"}, {"measurement": "pest or weed control at 140 g/ha", "setting": "[1]; [3]", "result": "95 to 100", "unit": "%"}, {"measurement": "pest or weed control at 70 g/ha", "setting": "[1]; [4]", "result": "95 to 100", "unit": "%"}, {"measurement": "pest or weed control at 140 g/ha", "setting": "[1]; [4]", "result": "95 to 100", "unit": "%"}, {"measurement": "pest or weed control at 70 g/ha", "setting": "[1]; [5]", "result": "95 to 100", "unit": "%"}, {"measurement": "pest or weed control at 140 g/ha", "setting": "[1]; [5]", "result": "95 to 100", "unit": "%"}, {"measurement": "pest or weed control at 70 g/ha", "setting": "[1]; [6]", "result": "95 to 100", "unit": "%"}, {"measurement": "pest or weed control at 140 g/ha", "setting": "[1]; [6]", "result": "95 to 100", "unit": "%"}, {"measurement": "pest or weed control at 70 g/ha", "setting": "[1]; [7]", "result": "95 to 100", "unit": "%"}, {"measurement": "pest or weed control at 140 g/ha", "setting": "[1]; [7]", "result": "95 to 100", "unit": "%"}, {"measurement": "pest or weed control at 70 g/ha", "setting": "[1]; [8]", "result": "85 to 94", "unit": "%"}, {"measurement": "pest or weed control at 140 g/ha", "setting": "[1]; [8]", "result": "95 to 100", "unit": "%"}, {"measurement": "pest or weed control at 70 g/ha", "setting": "[1]; [9]", "result": "75 to 84", "unit": "%"}, {"measurement": "pest or weed control at 140 g/ha", "setting": "[1]; [9]", "result": "95 to 100", "unit": "%"}, {"measurement": "pest or weed control at 70 g/ha", "setting": "[2]; [10]", "result": "30 to 44", "unit": "%"}, {"measurement": "pest or weed control at 140 g/ha", "setting": "[2]; [10]", "result": "30 to 44", "unit": "%"}, {"measurement": "pest or weed control at 70 g/ha", "setting": "[2]; [11]", "result": "0 to 29", "unit": "%"}, {"measurement": "pest or weed control at 140 g/ha", "setting": "[2]; [11]", "result": "45 to 59", "unit": "%"}, {"measurement": "pest or weed control at 70 g/ha", "setting": "[2]; [12]", "result": "75 to 84", "unit": "%"}, {"measurement": "pest or weed control at 140 g/ha", "setting": "[2]; [12]", "result": "75 to 84", "unit": "%"}, {"measurement": "pest or weed control at 70 g/ha", "setting": "[2]; [13]", "result": "75 to 84", "unit": "%"}, {"measurement": "pest or weed control at 140 g/ha", "setting": "[2]; [13]", "result": "75 to 84", "unit": "%"}, {"measurement": "pest or weed control at 70 g/ha", "setting": "[2]; [14]", "result": "0 to 29", "unit": "%"}, {"measurement": "pest or weed control at 140 g/ha", "setting": "[2]; [14]", "result": "0 to 29", "unit": "%"}, {"measurement": "pest or weed control at 70 g/ha", "setting": "[2]; [15]", "result": "45 to 59", "unit": "%"}, {"measurement": "pest or weed control at 140 g/ha", "setting": "[2]; [15]", "result": "75 to 84", "unit": "%"}, {"measurement": "pest or weed control at 70 g/ha", "setting": "[2]; [16]", "result": "0 to 29", "unit": "%"}, {"measurement": "pest or weed control at 140 g/ha", "setting": "[2]; [16]", "result": "0 to 29", "unit": "%"}, {"measurement": "pest or weed control at 70 g/ha", "setting": "[2]; [17]", "result": "45 to 59", "unit": "%"}, {"measurement": "pest or weed control at 140 g/ha", "setting": "[2]; [17]", "result": "60 to 74", "unit": "%"}]}]}
